The conditions of data set [1]: 101.33 kPa, Liquid, Vibrating tube method.
A short description of data set [2]: activity coefficient (dimensionless); of the first substance listed, at infinite dilution; xn = mol fraction of the nth substance listed. Particulars: 101 kPa, Liquid, Chromatography, x1 = 0.

± gives the expanded uncertainty stated by the source.

One may read the mass density as mass per unit of volume. On to `CCCC[n+]1cccc(C)c1.N#C[N-]C#N` [1-butyl-3-methylpyridinium dicyanamide], for which the mass density in data set [1] (308.15 K) stood at 1040.66 ± 2.1 kg/m3; in data set [1] (318.15 K) it was 1034.63 ± 2.1 kg/m3; in data set [1] (328.15 K), 1028.66 ± 2.1 kg/m3; in data set [1] (338.15 K), 1022.75 ± 2.1 kg/m3; in data set [1] (348.15 K), 1016.77 ± 2 kg/m3; in data set [1] (358.15 K), 1010.8 ± 2 kg/m3.
For `CCCOCCC` [dipropyl ether] + CCCC[n+]1cccc(C)c1.N#C[N-]C#N, the activity coefficient in data set [2] (308.15 K) worked out at 18.3 ± 1.3; in data set [2] (318.15 K), 17.7 ± 1.2; in data set [2] (328.15 K), 17.2 ± 1.2; in data set [2] (338.15 K), 16.6 ± 1.1; in data set [2] (348.15 K), 16.3 ± 1.1; in data set [2] (358.15 K), 15.6 ± 1.1. Besides, in data set [2] (368.15 K), the activity coefficient was found to be 15.2 ± 1.
In the case of `CC(C)=O` [acetone] + CCCC[n+]1cccc(C)c1.N#C[N-]C#N, the activity coefficient in data set [2] (328.15 K) worked out at 0.946 ± 0.06; in data set [2] (338.15 K), 0.968 ± 0.061; in data set [2] (348.15 K), 0.999 ± 0.062; in data set [2] (358.15 K) it was 1.03 ± 0.06; in data set [2] (368.15 K) it was 1.04 ± 0.07.
As to `CCCCO` [butan-1-ol] + CCCC[n+]1cccc(C)c1.N#C[N-]C#N, the activity coefficient turned out to be 0.88 ± 0.056 in data set [2] (338.15 K), 0.855 ± 0.055 in data set [2] (348.15 K), 0.84 ± 0.054 in data set [2] (358.15 K) and 0.814 ± 0.053 in data set [2] (368.15 K).
For the compound `C#CCCC` [1-pentyne] + CCCC[n+]1cccc(C)c1.N#C[N-]C#N, the activity coefficient in data set [2] (308.15 K) came out at 2.9 ± 0.2; in data set [2] (318.15 K) it was 2.97 ± 0.2; in data set [2] (328.15 K), 3.05 ± 0.21; in data set [2] (338.15 K) it was 3.14 ± 0.21; in data set [2] (348.15 K), 3.21 ± 0.22; in data set [2] (358.15 K), 3.28 ± 0.22. Also, in data set [2] (368.15 K), the activity coefficient came to 3.35 ± 0.23.
As to `O` [water] + CCCC[n+]1cccc(C)c1.N#C[N-]C#N, the activity coefficient in data set [2] (338.15 K) stood at 0.294 ± 0.031; in data set [2] (348.15 K), 0.302 ± 0.031; in data set [2] (358.15 K), 0.307 ± 0.031; in data set [2] (368.15 K) it was 0.314 ± 0.031.
As for `C1CCCCCC1` [cycloheptane] + CCCC[n+]1cccc(C)c1.N#C[N-]C#N, the activity coefficient in data set [2] (308.15 K) stood at 27.3 ± 1.9; in data set [2] (318.15 K) it was 25.2 ± 1.7; in data set [2] (328.15 K), 23.6 ± 1.6; in data set [2] (338.15 K), 22.1 ± 1.5; in data set [2] (348.15 K) it was 20.7 ± 1.4; in data set [2] (358.15 K), 19.5 ± 1.3. Besides, the activity coefficient in data set [2] (368.15 K) is 18.5 ± 1.3.
Turning to `Cc1ccccc1C` [1,2-dimethylbenzene] + CCCC[n+]1cccc(C)c1.N#C[N-]C#N, the activity coefficient in data set [2] (328.15 K) is 2.47 ± 0.17; in data set [2] (338.15 K) it was 2.51 ± 0.17; in data set [2] (348.15 K), 2.58 ± 0.18; in data set [2] (358.15 K), 2.64 ± 0.18; in data set [2] (368.15 K), 2.71 ± 0.18.
With `c1ccncc1` [pyridine] + CCCC[n+]1cccc(C)c1.N#C[N-]C#N, the activity coefficient in data set [2] (338.15 K) was 0.718 ± 0.048; in data set [2] (348.15 K), 0.731 ± 0.048; in data set [2] (358.15 K) it was 0.754 ± 0.05; in data set [2] (368.15 K), 0.768 ± 0.05.
Consider `Cc1ccccc1` [toluene] + CCCC[n+]1cccc(C)c1.N#C[N-]C#N, for which the activity coefficient in data set [2] (328.15 K) was 2.01 ± 0.14; in data set [2] (338.15 K), 2.05 ± 0.14; in data set [2] (348.15 K) it was 2.1 ± 0.14; in data set [2] (358.15 K), 2.15 ± 0.15; in data set [2] (368.15 K), 2.2 ± 0.15.
With `CCCCCCC` [heptane] + CCCC[n+]1cccc(C)c1.N#C[N-]C#N, the activity coefficient was found to be 82.8 ± 5.7 in data set [2] (308.15 K); 75.7 ± 5.2 in data set [2] (318.15 K); 69.9 ± 4.8 in data set [2] (328.15 K); 64.3 ± 4.4 in data set [2] (338.15 K); 59.4 ± 4.1 in data set [2] (348.15 K); 55.4 ± 3.8 in data set [2] (358.15 K). Besides, the activity coefficient in data set [2] (368.15 K) was 51.7 ± 3.5.
For the compound `c1ccsc1` [thiophene] + CCCC[n+]1cccc(C)c1.N#C[N-]C#N, the activity coefficient in data set [2] (308.15 K) amounted to 0.822 ± 0.053; in data set [2] (318.15 K), 0.844 ± 0.054; in data set [2] (328.15 K) it was 0.868 ± 0.055; in data set [2] (338.15 K), 0.89 ± 0.057; in data set [2] (348.15 K), 0.911 ± 0.058; in data set [2] (358.15 K) it was 0.937 ± 0.059. For the same compound, in data set [2] (368.15 K), the activity coefficient amounted to 0.955 ± 0.06.
Turning to `CCC(=O)CC` [pentan-3-one] + CCCC[n+]1cccc(C)c1.N#C[N-]C#N, the activity coefficient in data set [2] (328.15 K) amounted to 1.84 ± 0.12; in data set [2] (338.15 K), 1.89 ± 0.13; in data set [2] (348.15 K) it was 1.94 ± 0.13; in data set [2] (358.15 K) it was 1.97 ± 0.13; in data set [2] (368.15 K), 2.01 ± 0.14.
For `CCC[N+](=O)[O-]` [1-nitropropane] + CCCC[n+]1cccc(C)c1.N#C[N-]C#N, the activity coefficient in data set [2] (338.15 K) came to 1.13 ± 0.07; in data set [2] (348.15 K), 1.14 ± 0.07; in data set [2] (358.15 K), 1.15 ± 0.07; in data set [2] (368.15 K), 1.15 ± 0.07.
On to `C1CCCC1` [cyclopentane] + CCCC[n+]1cccc(C)c1.N#C[N-]C#N, for which the activity coefficient in data set [2] (308.15 K) worked out at 15.1 ± 1; in data set [2] (318.15 K), 14.2 ± 1; in data set [2] (328.15 K) it was 13.4 ± 0.9; in data set [2] (338.15 K), 12.6 ± 0.9; in data set [2] (348.15 K), 11.9 ± 0.8; in data set [2] (358.15 K) it was 11.3 ± 0.8. Besides, the activity coefficient in data set [2] (368.15 K) is 10.9 ± 0.7.
Turning to `C=CCCC` [1-pentene] + CCCC[n+]1cccc(C)c1.N#C[N-]C#N, the activity coefficient was determined as 15.3 ± 1 in data set [2] (308.15 K); 14.7 ± 1 in data set [2] (318.15 K); 14.1 ± 1 in data set [2] (328.15 K); 13.7 ± 0.9 in data set [2] (338.15 K); 13.1 ± 0.9 in data set [2] (348.15 K); 12.6 ± 0.9 in data set [2] (358.15 K). In data set [2] (368.15 K), the activity coefficient came to 12.2 ± 0.8.
Regarding `C1CCCCC1` [cyclohexane] + CCCC[n+]1cccc(C)c1.N#C[N-]C#N, the activity coefficient came out at 23 ± 1.6 in data set [2] (308.15 K); 21.2 ± 1.4 in data set [2] (318.15 K); 19.8 ± 1.4 in data set [2] (328.15 K); 18.5 ± 1.3 in data set [2] (338.15 K); 17.4 ± 1.2 in data set [2] (348.15 K); 16.5 ± 1.1 in data set [2] (358.15 K). Further, in data set [2] (368.15 K), the activity coefficient was 15.6 ± 1.1.
For the compound `CCCCCCCC` [octane] + CCCC[n+]1cccc(C)c1.N#C[N-]C#N, the activity coefficient was 123 ± 8 in data set [2] (308.15 K); 111 ± 8 in data set [2] (318.15 K); 101 ± 7 in data set [2] (328.15 K); 92.7 ± 6.4 in data set [2] (338.15 K); 85.2 ± 5.8 in data set [2] (348.15 K); 79 ± 5.4 in data set [2] (358.15 K). Moreover, the activity coefficient in data set [2] (368.15 K) came to 73.3 ± 5.
On to `CCCCCCCCC` [nonane] + CCCC[n+]1cccc(C)c1.N#C[N-]C#N, for which the activity coefficient in data set [2] (308.15 K) came out at 182 ± 13; in data set [2] (318.15 K), 162 ± 11; in data set [2] (328.15 K), 148 ± 10; in data set [2] (338.15 K), 134 ± 9; in data set [2] (348.15 K), 122 ± 8; in data set [2] (358.15 K), 112 ± 8. Further, the activity coefficient in data set [2] (368.15 K) stood at 103 ± 7.
Regarding `CCC(C)(C)C` [2,2-dimethylbutane] + CCCC[n+]1cccc(C)c1.N#C[N-]C#N, the activity coefficient in data set [2] (308.15 K) turned out to be 57.3 ± 3.9; in data set [2] (318.15 K), 52 ± 3.6; in data set [2] (328.15 K) it was 47.4 ± 3.2; in data set [2] (338.15 K), 42.9 ± 2.9; in data set [2] (348.15 K) it was 39.4 ± 2.7; in data set [2] (358.15 K) it was 36.4 ± 2.5. In addition, the activity coefficient in data set [2] (368.15 K) amounted to 33.6 ± 2.3.
On to `CC1CCCCC1` [methylcyclohexane] + CCCC[n+]1cccc(C)c1.N#C[N-]C#N, for which the activity coefficient in data set [2] (308.15 K) is 34.1 ± 2.3; in data set [2] (318.15 K), 31.5 ± 2.2; in data set [2] (328.15 K), 29.3 ± 2; in data set [2] (338.15 K), 27.3 ± 1.9; in data set [2] (348.15 K), 25.5 ± 1.7; in data set [2] (358.15 K) it was 23.9 ± 1.6. The activity coefficient in data set [2] (368.15 K) is 22.6 ± 1.5.
Take `CCO` [ethanol] + CCCC[n+]1cccc(C)c1.N#C[N-]C#N: the activity coefficient stood at 0.549 ± 0.04 in data set [2] (338.15 K), 0.545 ± 0.04 in data set [2] (348.15 K), 0.541 ± 0.04 in data set [2] (358.15 K) and 0.537 ± 0.039 in data set [2] (368.15 K).
Take `Cc1cccc(C)c1` [1,3-dimethylbenzene] + CCCC[n+]1cccc(C)c1.N#C[N-]C#N: the activity coefficient amounted to 3.01 ± 0.2 in data set [2] (328.15 K); 3.06 ± 0.21 in data set [2] (338.15 K); 3.14 ± 0.21 in data set [2] (348.15 K); 3.2 ± 0.22 in data set [2] (358.15 K); 3.28 ± 0.22 in data set [2] (368.15 K).
In the case of `C=CCCCCC` [1-heptene] + CCCC[n+]1cccc(C)c1.N#C[N-]C#N, the activity coefficient stood at 33.1 ± 2.3 in data set [2] (308.15 K); 31.2 ± 2.1 in data set [2] (318.15 K); 29.7 ± 2 in data set [2] (328.15 K); 28.3 ± 1.9 in data set [2] (338.15 K); 27 ± 1.8 in data set [2] (348.15 K); 25.9 ± 1.8 in data set [2] (358.15 K). In data set [2] (368.15 K), the activity coefficient came to 24.8 ± 1.7.
In the case of `CCC(C)(C)OC` [2-methoxy-2-methylbutane] + CCCC[n+]1cccc(C)c1.N#C[N-]C#N, the activity coefficient in data set [2] (308.15 K) turned out to be 9.8 ± 0.67; in data set [2] (318.15 K), 9.71 ± 0.66; in data set [2] (328.15 K) it was 9.59 ± 0.65; in data set [2] (338.15 K), 9.51 ± 0.65; in data set [2] (348.15 K) it was 9.44 ± 0.64; in data set [2] (358.15 K), 9.35 ± 0.64. Also, the activity coefficient in data set [2] (368.15 K) is 9.27 ± 0.63.
